Results reported in paper PMC5831597, “Alleviating the Intestinal Absorption of Rhein in Rhubarb through Herb Compatibility in Tiaowei Chengqi Tang in Caco-2 Cells” (Evidence-based Complementary and Alternative Medicine : eCAM, 2018).
≈ marks a conversion by molar mass, not a printed value. One block for each compound: values may come before it.

Experiments:
[1] = tested on: BCRP; conditions: BCRP inhibitor; cited from earlier work
[2] = tested on: Caco-2 cells; experiment: Cellular uptake of rhein in cultured Caco-2 cell monolayers; assay type: in vitro ADME, human; conditions: rhein 27.3 μg/ml
Method: Cell monolayers were prepared as described for the transport studies. […] Cells attached to the polycarbonate membranes were cut off from the inserts, immersed in 1 ml blank D-Hanks, and sonicated for 15 min. The mixture was centrifuged at 10,000 ×g for 5 min. The concentrations of all the samples were analyzed by UPLC-QTOF-HRMS-MS.

[3] = tested on: Caco-2 cell monolayer; experiment: Transport of rhein across the Caco-2 cell monolayer (A to B, B to A); assay type: in vitro ADME, human
Method: (§1) For transport experiments, the cells were seeded at a density of 1 × 10^5 cells/ml on polycarbonate membranes of cell culture inserts (6.5 mm membrane diameter, 0.4 μm pore size, and 0.33 cm^2 surface area) and placed in 12-well cell culture clusters. The transepithelial electrical resistance (TEER) was assessed using a Millicell ERS-2 (Millipore, USA) to reflect the tightness of intercellular junctions. […] The transports of rhein alone, rhein in RE, PE, RPE, and TWCQT across Caco-2 monolayers were investigated. Briefly, the cell monolayers were washed 3 times with D-Hanks. After each wash, the plates were incubated in fresh D-Hanks for 30 min at 37°C. The transport experiments were conducted by adding the test solution to either the apical (A, 0.5 ml) or basolateral side (B, 1.5 ml), while the receiving chamber contained the corresponding volume of prewarmed drug-free D-Hanks. Every experiment was repeated 3 times, and the plates were incubated in an orbital shaker at 37°C. […] sequential samples (50 μl) were taken at different times (30, 60, 90, 120, and 150 min) from both sides of the cell monolayer. The same volume of D-Hanks was immediately added to replace the samples obtained. […] All inhibitors were loaded onto the A side of the monolayers. […] The concentrations of all the samples were analyzed by UPLC-QTOF-HRMS-MS. Data in the present study were presented as mean ± standard deviation (SD). Significant analysis was performed using Statistical Package for Social Sciences (SPSS) version 16.0 (SPSS Inc., Chicago, IL, USA). Statistical significance was determined by one-way ANOVA with Dunnett's test and differences were considered significant when p < 0.05. In the Caco-2 cell model, the rate of transport was obtained from the amount transported versus time curve using linear regression. The apparent permeability (Papp) used as an expression of the absorption rate constant was calculated as follows: Papp = (dQ/dt)/(A × C0), where dQ/dt is the rate at which the compound appears in the receiver chamber (mg/s), A is the surface area of the filter membrane ([…]), and C0 is the initial concentration in the donor chamber (mg/mL). Efflux ratio (ER) was calculated from the following equation: ER = […]), where Papp(B to A) is the Papp value measured in the B to A direction and Papp(A to B) is the Papp value measured in the A to B direction.

[4] = as above; assay type: in vitro ADME, human; conditions: human, Caco-2, PE, RPE
Method: as §1

[5] = tested on: P-gp; experiment: as above; assay type: in vitro ADME, human; conditions: human, Caco-2, with verapamil 50 μmol/ml, loaded onto the A side; rhein 27.3 μg/ml; verapamil 50 μmol/ml (P-gp inhibitor); read-out: ER of rhein in presence of verapamil
Method: as §1

[6] = tested on: BCRP; experiment: as above; assay type: in vitro ADME, human; conditions: human, Caco-2, with Ko143 10 μmol/ml, loaded onto the A side; rhein 27.3 μg/ml; Ko143 10 μmol/ml (BCRP inhibitor); read-out: ER of rhein in presence of Ko143
Method: as §1

[7] = tested on: MRP2; experiment: as above; assay type: in vitro ADME, human; conditions: human, Caco-2, with MK-571 50 μmol/ml, loaded onto the A side; rhein 27.3 μg/ml; MK-571 50 μmol/ml (MRP2 inhibitor); read-out: ER of rhein in presence of MK-571
Method: as §1

[8] = tested on: human colon adenocarcinoma cells (Caco-2); design: method as in PMID 19538468; conditions: Caco-2, 0.1–10 μg/ml; cited from earlier work
[9] = MTT cytotoxicity assay on Caco-2 cells; assay type: cell-based; conditions: human, 48 h exposure
Method: Caco-2 cells were maintained in DMEM containing 10% FBS (inactivation at 56°C for 30 min), 1% NEAA, and 1% penicillin and streptomycin solution in a humidified atmosphere with 5% CO2 at 37°C. The medium was replaced every 2 days, and the cells were passaged at 80 to 90% confluence using trypsin/phosphate-buffered saline (PBS, pH 7.4). The cytotoxicity of rhein, RE, PE, RPE, and TWCQT to Caco-2 cells was evaluated by MTT assay. Briefly, 200 μl of Caco-2 cells was seeded in a 96-well plate (Coring, NY, USA) at a density of 2 × 10^4 cells/ml. Following incubation for 24 h, different concentrations of test solution were added. Thereafter, 20 μl of 5 mg/mL MTT was added, the medium was removed after 4 h, and the remaining formazan crystals were solubilized with 150 μl of dimethyl sulfoxide (DMSO). The absorbance was measured at 490 nm on a microplate reader (Thermo Scientific, Tokyo, Japan). Cells incubated without the test samples were used as controls. In each MTT assay, every sample was tested in 6 replicates.

SMILES: COc1ccc2c3c([nH]c2c1)[C@H](CC(C)C)N1C(=O)[C@H](CCC(=O)OC(C)(C)C)NC(=O)[C@@H]1C3 [Ko143]
selectivity over P-gp and MRP1 transporters [1]: higher than 200 fold

intracellular accumulation of rhein after Ko143 ([2]; 2 h, Ko143 10 μmol/ml): significantly increased | intracellular amounts of rhein after MK-571 ([2]; 2 h, MK-571 50 μmol/ml): no significant changes | intracellular amounts of rhein after verapamil ([2]; 2 h, verapamil 50 μmol/ml): no significant changes | cellular uptake of rhein ([2]; A compartment, 2 h incubation): 0.68 ng/μg protein | ER of rhein at different concentrations ([3]; 8.61, 17.22, 34.44, 27.3, 54.6 and 109.2 μg/ml rhein): more than 1.5 | amounts of rhein transported from B to A after Ko143 ([3]; rhein 27.3 μg/ml, Ko143 10 μmol/ml, p < 0.01): significantly decreased | influence of MK-571 on Papp values of rhein from B to A ([3]; rhein 27.3 μg/ml, MK-571 50 μmol/ml, p < 0.05): significant influences | influence of verapamil on Papp values of rhein from A to B or B to A ([3]; rhein 27.3 μg/ml, verapamil 50 μmol/ml): no significant influence | Papp at 150 min, 27.3 μg/ml ([4]; apical to basolateral, rhein 27.3 μg/ml, TWCQT 1 mg/ml, read-out: Papp PAB of rhein): 2.31 ± 0.13 ×10⁻⁶ cm/s | Papp at 150 min, 54.6 μg/ml ([4]; apical to basolateral, rhein 54.6 μg/ml, TWCQT 2 mg/ml, read-out: Papp PAB of rhein): 2.58 ± 0.26 ×10⁻⁶ cm/s | Papp at 150 min, 109.2 μg/ml ([4]; apical to basolateral, rhein 109.2 μg/ml, TWCQT 4 mg/ml, read-out: Papp PAB of rhein): 2.52 ± 0.19 ×10⁻⁶ cm/s | Papp B→A at 150 min, 27.3 μg/ml ([4]; basolateral to apical, rhein 27.3 μg/ml, TWCQT 1 mg/ml, read-out: Papp PBA of rhein): 6.54 ± 0.27 ×10⁻⁶ cm/s | Papp B→A at 150 min, 54.6 μg/ml ([4]; basolateral to apical, rhein 54.6 μg/ml, TWCQT 2 mg/ml, read-out: Papp PBA of rhein): 7.02 ± 0.58 ×10⁻⁶ cm/s | Papp B→A at 150 min, 109.2 μg/ml ([4]; basolateral to apical, rhein 109.2 μg/ml, TWCQT 4 mg/ml, read-out: Papp PBA of rhein): 6.72 ± 0.31 ×10⁻⁶ cm/s | efflux ratio at 150 min, 27.3 μg/ml ([4]; rhein 27.3 μg/ml, TWCQT 1 mg/ml, read-out: ER PBA/PAB of rhein): 2.83 | efflux ratio at 150 min, 54.6 μg/ml ([4]; rhein 54.6 μg/ml, TWCQT 2 mg/ml, read-out: ER PBA/PAB of rhein): 2.72 | efflux ratio at 150 min, 109.2 μg/ml ([4]; rhein 109.2 μg/ml, TWCQT 4 mg/ml, read-out: ER PBA/PAB of rhein): 2.38 | efflux ratio at 150 min, 27.3 μg/ml [5]: 2.12 | efflux ratio at 150 min, 27.3 μg/ml [6]: 1.27 | efflux ratio at 150 min, 27.3 μg/ml [7]: 1.98
SMILES: O=C(O)c1cc(O)c2c(c1)C(=O)c1cccc(O)c1C2=O [Rhein]
cytotoxic and genotoxic effects [8]: devoid of cytotoxic and genotoxic effects | IC50 at 48 h [9]: 3490 ± 960 µg/mL (≈ 12.3 mM)
